Test results published in the NIST ThermoML archive (doi:10.1016/j.fluid.2005.03.019).
Numbers after ± are expanded uncertainties.

Key:
[1] = Liquid
[2] = refractive index (Na D-line) (dimensionless); settings: 293.1 K; 101.33 kPa; Liquid; Standard Abbe refractometry

In the case of `CC(C)COC(=O)C1CCCCC1C(=O)OCC(C)C` (stereo unspecified) [diisobutyl hexahydrophthalate], the “vapor or sublimation pressure” value ([1]; 434.4 K) is reported as 0.732 ± 0.32 kPa, the “vapor or sublimation pressure” value ([1]; 448.2 K) is reported as 1.539 ± 0.33 kPa and the “vapor or sublimation pressure” value ([1]; 463.3 K) is reported as 2.912 ± 0.33 kPa. For the same molecule, the “vapor or sublimation pressure” value ([1]; 478.7 K) was 4.813 ± 0.34 kPa, the “vapor or sublimation pressure” value ([1]; 486.4 K) was 6.342 ± 0.34 kPa and the “vapor or sublimation pressure” value ([1]; 491.5 K) was 7.672 ± 0.34 kPa. The “vapor or sublimation pressure” value ([1]; 500.3 K) was 10.2 ± 0.35 kPa, the “vapor or sublimation pressure” value ([1]; 506.6 K) was 12.5 ± 0.36 kPa and the “vapor or sublimation pressure” value ([1]; 509.6 K) was 13.99 ± 0.36 kPa. For the same molecule, the “vapor or sublimation pressure” value ([1]; 515 K) was 16.31 ± 0.37 kPa, the “vapor or sublimation pressure” value ([1]; 519.5 K) was 18.67 ± 0.38 kPa and the “vapor or sublimation pressure” value ([1]; 524.1 K) was 21.3 ± 0.39 kPa. For the same molecule, the “vapor or sublimation pressure” value ([1]; 527.8 K) was 23.69 ± 0.4 kPa, the “vapor or sublimation pressure” value ([1]; 534.8 K) was 28.61 ± 0.41 kPa and the “vapor or sublimation pressure” value ([1]; 538.2 K) was 30.94 ± 0.42 kPa. The refractive index [2] was 1.453 ± 0.0007.
